Data: patent US20230382919A1, “OXA- IBOGAINE INSPIRED ANALOGUES FOR TREATMENT OF NEUROLOGICAL AND PSYCHIATRIC DISORDERS” (The Trustees of Columbia University in the City of New York, priority 2021, published 2023)
Read-outs that look alike come from different tables or passages of the source.

Key:
5-HT2C = 5-HT2C (Homo sapiens (Human), UniProt P28335); assay: 5-HT2C agonist (IP1) assay, HEK-293 cells (commercial); assay type: cell-based; conditions: for Emax at 10 µM: HEK293, read-out: % of control agonist maximal response (5-HT2C); for EC50: IP1 agonist assay
Chain of 5-HT2C (P28335 whole entry, looked up): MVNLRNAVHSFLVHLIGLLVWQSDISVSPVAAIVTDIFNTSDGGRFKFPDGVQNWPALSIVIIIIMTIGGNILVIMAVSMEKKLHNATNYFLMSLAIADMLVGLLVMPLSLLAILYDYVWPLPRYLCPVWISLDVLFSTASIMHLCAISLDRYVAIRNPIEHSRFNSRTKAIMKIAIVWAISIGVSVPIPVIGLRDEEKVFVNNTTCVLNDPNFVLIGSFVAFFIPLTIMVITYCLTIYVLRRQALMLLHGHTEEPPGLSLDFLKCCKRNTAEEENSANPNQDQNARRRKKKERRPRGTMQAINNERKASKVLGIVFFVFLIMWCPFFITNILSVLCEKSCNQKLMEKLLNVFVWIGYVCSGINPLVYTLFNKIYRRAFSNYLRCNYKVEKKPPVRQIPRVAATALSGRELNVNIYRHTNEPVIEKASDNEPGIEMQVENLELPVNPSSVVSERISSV
From the text: (§1) Potency (IC50 and EC50) and efficacy values for hERG, rKOR-CHO, hMOR-CHO, h5-HT2A-HEK, h5-HT2B-CHO, h5-HT2C HEK were obtained by screening the selected compounds via commercially available assay services.

5-HT2B = 5-HT2B (Homo sapiens (Human), UniProt P41595); assay: 5-HT2B agonist (IP1) assay, CHO cells (commercial); assay type: cell-based; conditions: for Emax at 10 µM: CHO, read-out: % of control agonist maximal response (5-HT2B); for EC50: IP1 agonist assay
Chain of 5-HT2B (P41595 whole entry): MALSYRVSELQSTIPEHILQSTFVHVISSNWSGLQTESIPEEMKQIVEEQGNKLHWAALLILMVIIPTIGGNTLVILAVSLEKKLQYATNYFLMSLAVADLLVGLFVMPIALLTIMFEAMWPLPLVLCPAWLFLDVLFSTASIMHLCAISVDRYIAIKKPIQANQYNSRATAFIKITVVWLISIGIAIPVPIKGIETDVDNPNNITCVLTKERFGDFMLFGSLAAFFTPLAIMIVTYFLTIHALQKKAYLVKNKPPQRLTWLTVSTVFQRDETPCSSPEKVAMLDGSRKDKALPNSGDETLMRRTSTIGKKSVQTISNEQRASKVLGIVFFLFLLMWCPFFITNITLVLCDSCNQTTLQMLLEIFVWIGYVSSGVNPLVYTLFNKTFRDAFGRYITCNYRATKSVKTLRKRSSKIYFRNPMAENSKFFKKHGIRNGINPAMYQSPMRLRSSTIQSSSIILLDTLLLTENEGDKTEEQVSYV
From the text: as §1

hERG = hERG (Homo sapiens (Human), UniProt Q12809); assay: hERG radioligand ([3H]Dofetilide) displacement binding assay (commercial); conditions: for IC50: [3H]Dofetilide displacement
Chain of hERG (Q12809 whole entry): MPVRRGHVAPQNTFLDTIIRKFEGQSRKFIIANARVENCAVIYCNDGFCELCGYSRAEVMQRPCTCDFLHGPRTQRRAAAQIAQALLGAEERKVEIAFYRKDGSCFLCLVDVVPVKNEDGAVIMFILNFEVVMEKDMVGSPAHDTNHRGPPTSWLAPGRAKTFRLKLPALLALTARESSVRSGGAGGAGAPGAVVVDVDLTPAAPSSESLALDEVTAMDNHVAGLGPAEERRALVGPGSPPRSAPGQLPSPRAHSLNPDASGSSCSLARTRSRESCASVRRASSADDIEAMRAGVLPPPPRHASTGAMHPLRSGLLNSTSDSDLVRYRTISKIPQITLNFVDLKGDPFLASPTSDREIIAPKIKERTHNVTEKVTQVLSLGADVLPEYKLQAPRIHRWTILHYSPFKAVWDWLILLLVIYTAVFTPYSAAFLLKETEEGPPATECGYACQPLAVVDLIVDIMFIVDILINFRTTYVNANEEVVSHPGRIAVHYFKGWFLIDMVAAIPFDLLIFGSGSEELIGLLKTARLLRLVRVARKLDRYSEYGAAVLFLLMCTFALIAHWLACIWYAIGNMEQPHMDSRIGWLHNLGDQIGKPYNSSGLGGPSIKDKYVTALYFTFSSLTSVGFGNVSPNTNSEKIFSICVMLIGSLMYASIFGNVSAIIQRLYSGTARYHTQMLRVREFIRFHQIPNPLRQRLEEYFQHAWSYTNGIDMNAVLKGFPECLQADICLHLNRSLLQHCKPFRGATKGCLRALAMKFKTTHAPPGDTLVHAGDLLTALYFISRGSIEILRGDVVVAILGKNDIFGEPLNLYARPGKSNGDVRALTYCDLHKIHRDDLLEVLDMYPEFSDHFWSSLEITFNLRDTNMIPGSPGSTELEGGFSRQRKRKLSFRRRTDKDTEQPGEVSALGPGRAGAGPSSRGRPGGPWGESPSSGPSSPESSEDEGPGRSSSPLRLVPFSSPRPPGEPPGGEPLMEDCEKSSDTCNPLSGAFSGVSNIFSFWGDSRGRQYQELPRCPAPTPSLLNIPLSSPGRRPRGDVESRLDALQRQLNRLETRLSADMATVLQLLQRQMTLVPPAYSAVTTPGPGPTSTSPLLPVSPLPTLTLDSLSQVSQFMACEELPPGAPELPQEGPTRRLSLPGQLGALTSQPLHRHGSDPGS
From the text: as §1

5-HT2A = 5-HT2A (Homo sapiens (Human), UniProt P28223); assay: 5-HT2A agonist (IP1) assay, HEK-293 cells (commercial); assay type: cell-based; conditions: for Emax at 10 µM: HEK293, read-out: % of control agonist maximal response (5-HT2A); for EC50: IP1 agonist assay
From the text: as §1

KOR = KOR (Rattus norvegicus (Rat), UniProt P34975); assay: KOR agonist (cAMP) assay, CHO cells (commercial); assay type: cell-based; conditions: for Emax at 10 µM / Emax: read-out: % of control agonist maximal response (KOR)
From the text: as §1

rVMAT2 = rVMAT2 (Rattus norvegicus (Rat), UniProt Q01827); assay: rVMAT2 fluorometric screening assay (FFN206 uptake, rVMAT2-HEK cells); assay type: cell-based; conditions: average ± SEM, n ≥ 4; read-out: IC50 VMAT2 [μM ± SEM]
Chain of rVMAT2 (Q01827 whole entry): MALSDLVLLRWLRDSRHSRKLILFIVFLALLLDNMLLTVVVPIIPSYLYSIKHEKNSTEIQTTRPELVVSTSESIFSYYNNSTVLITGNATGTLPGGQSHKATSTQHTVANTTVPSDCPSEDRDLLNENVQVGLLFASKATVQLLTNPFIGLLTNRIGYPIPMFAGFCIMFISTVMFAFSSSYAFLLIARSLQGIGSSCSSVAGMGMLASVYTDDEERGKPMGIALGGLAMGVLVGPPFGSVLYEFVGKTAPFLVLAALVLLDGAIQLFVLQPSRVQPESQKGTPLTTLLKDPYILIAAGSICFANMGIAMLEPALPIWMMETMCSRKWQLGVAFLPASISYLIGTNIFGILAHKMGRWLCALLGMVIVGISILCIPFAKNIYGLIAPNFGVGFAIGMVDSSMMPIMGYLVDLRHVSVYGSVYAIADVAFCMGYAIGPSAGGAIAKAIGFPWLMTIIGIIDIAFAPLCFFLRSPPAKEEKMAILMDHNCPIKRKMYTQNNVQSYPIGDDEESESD
Description: (§2) Inhibition assays of transporters (hSERT and rVMAT2) were performed according to the following protocol.
(§3) Stably transfected hSERT-HEK and rVMAT2-HEK cellular cultures were maintained in Dulbecco's Minimal Essential Medium (DMEM) with GlutaMAX (Gibco) with the following additions: 10% (v/v) Fetal Bovine Serum (FBS, Atlanta Biologicals), 100 U/mL Penicillin (Gibco), and 10 μg/mL Streptomycin (Gibco). With regards to the former cell lineage, an additional ingredient, 500 μg/mL Geneticin (G418) (Gibco) was included to preserve the respective transgene.
(§4) For both hSERT and rVMAT2 screening experiments, respective singly transfected cells were seeded at a density of 0.09×10^6 cells/well in poly-D-Lysine (Alamanda Polymers, Inc.) coated white solid-bottom 96-well plates (Costar). Growth was permitted for approximately 44 hours in said aqueous media and at an incubation environment of 37° C. and 5% Carbon Dioxide. At the beginning of the experiment, the cellular growth solution was aspirated, and individual cells were rinsed with 150 μL of 1×Dulbecco's Phosphate Buffered Saline (PBS; HyClone). 63 μL of Experimental Media (consisting of the following contents: DMEM without phenol red but with 4.5 g/L of D-Glucose (Gibco), 1% (v/v) FBS (Atlanta Biologicals), 100 U/mL Penicillin (Gibco), and 10 μg/mL Streptomycin (Gibco)) with 2×tiered concentrations of inhibitor (or DMSO, the vehicle of these experiments) were added to the respective wells. Control inhibitors used in these studies include Imipramine for hSERT experiments, and Reserpine for rVMAT2 experiments (Eiden, L. E. and Weihe, E. 2011; Sette, M. et al. 1983). At the conclusion of the pre-incubation period (60 minutes for hSERT experiments and 30 minutes for rVMAT2 experiments), 63 μL of Experimental Media containing 2×various concentrations of tested inhibitor (or vehicle) along with a specified amount of fluorescent substrate, APP^+ (Karpowicz, R. J. et al 2013) (final concentration: 1.1 μM for hSERT experiments) or FFN206 (Hu, G. et al. 2013) (final concentration: 0.75 μM for rVMAT2 experiments) were added to the present solution contained within the wells. […] A final solution of 120 μL of PBS is finally added to all corresponding wells for cell maintenance before undergoing fluorescence uptake reading by a BioTek H1MF plate reader. […]
(§5) Numerical analysis of the collected experimental data preceded as accordingly. Respective inhibitor values were first subtracted from vehicular values to quantify the respective fluorescence uptake. This metric was then analyzed using the dose-response-inhibitor nonlinear curve fitting model ([inhibitor] vs response (three parameters)) as supplied by GraphPad Prism 8 software. […]

hSERT = hSERT (Homo sapiens (Human), UniProt P31645); assay: hSERT fluorometric screening assay (APP+ uptake, hSERT-HEK cells); assay type: cell-based; conditions: average ± SEM, n ≥ 4; read-out: IC50 SERT [μM ± SEM]
Description: as §2, §3, §4, §5

mouse MOR (mMOR) = mouse MOR (mMOR) (Mus musculus (Mouse), UniProt P42866); assay: G-protein BRET functional opioid assay, MOR; assay type: cell-based; conditions: for Emax: normalized to DAMGO, read-out: % of control agonist maximal response (MOR)
Chain of mouse MOR (mMOR) (P42866 whole entry, looked up): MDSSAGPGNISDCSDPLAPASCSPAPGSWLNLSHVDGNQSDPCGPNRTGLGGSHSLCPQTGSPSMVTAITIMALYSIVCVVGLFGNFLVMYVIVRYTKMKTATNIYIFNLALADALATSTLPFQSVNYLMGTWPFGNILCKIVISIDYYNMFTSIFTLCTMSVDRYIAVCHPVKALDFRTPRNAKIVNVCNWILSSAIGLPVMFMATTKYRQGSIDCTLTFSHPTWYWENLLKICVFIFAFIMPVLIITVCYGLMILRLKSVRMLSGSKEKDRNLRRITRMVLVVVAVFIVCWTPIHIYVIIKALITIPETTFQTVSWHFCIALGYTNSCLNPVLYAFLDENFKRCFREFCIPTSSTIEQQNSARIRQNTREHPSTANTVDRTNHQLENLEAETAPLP
Description: (§6) HEK-293T cells were obtained from the American Type Culture Collection (Rockville, MD) and were cultured in a 5% CO2 atmosphere at 37° C. in Dulbecco's Modified Eagle Medium (high glucose #11965; Life Technologies Corp.; Grand Island, NY) supplemented with 10% FBS (Premium Select, Atlanta Biologicals; Atlanta, GA), 100 U/mL penicillin, and 100 μg/mL streptomycin (#15140, Life Technologies). DNA Constructs: The mouse MOR (mMOR), the mouse DOR (mDOR) and the rat KOR (rKOR) were provided by Dr Lakshmi Devi at Mount Sinai School of Medicine. The G proteins used included untagged GαoB with Renilla luciferase 8 (RLuc8) inserted at position 91 (GαoB-RLuc8); Gβ1 (β1); Gγ2 which was fused to the full-length mVenus at its N-terminus via the amino acid linker GSAGT (mVenus-γ2). All constructs were sequence confirmed prior to use in experiments.
(§7) Transfection: The following cDNA amounts were transfected into HEK-293T cells (5×10^6 cells/plate) in 10-cm dishes using polyethylenimine (PEI) in a 1:1 ratio (diluted in Opti-MEM, Life Technologies): 2.5 μg MOR/DOR/KOR, 0.125 μg GαoBRLuc8, 6.25 μg (1, 6.25 μg mVenus-γ2. Cells were maintained in the HEK-293T media described above. After 24 hours the media was changed, and the experiment was performed 24 hours later (48 hours after transfection). BRET: Transfected cells were dissociated and re-suspended in phosphate-buffered saline (PBS). Approximately 200,000 cells/well were added to a black-framed, white-well, 96-well plate (#60050; Perkin Elmer; Waltham, MA). The microplate was centrifuged and the cells were resuspended in PBS. After 5 minutes, 5 μM of the luciferase substrate coelenterazine H was added to each well. After 5 minutes, ligands were added and the BRET signal was measured 5 minutes later on a PHERAstar FS plate reader. The BRET signal was quantified by calculating the ratio of the light emitted by the energy acceptor, mVenus (510-540 nm), over the light emitted by the energy donor, RLuc8 (485 nm). This drug-induced BRET signal was normalized using the Emax of a known agonist (DAMGO, DPDPE or U-50,488) as the maximal response at MOR/DOR/KOR. Data were analyzed using the dose-response-stimulation nonlinear curve fitting model (log[agonist] vs. response (three parameters)).

mouse DOR (mDOR) = mouse DOR (mDOR) (Mus musculus (Mouse), UniProt P32300); assay: G-protein BRET functional opioid assay, DOR; assay type: cell-based; conditions: for Emax: normalized to DPDPE, read-out: % of control agonist maximal response (DOR)
Description: as §6, §7

rat KOR (rKOR) = rat KOR (rKOR) (Rattus norvegicus (Rat), UniProt P34975); assay: G-protein BRET functional opioid assay, KOR; assay type: cell-based; conditions: for Emax: normalized to U-50,488, read-out: % of control agonist maximal response (KOR)
Description: as §6, §7

[1] = Table 2, cAMP agonist assay, rat KOR, CHO

Oc1ccc2oc3c(c2c1)CCN1CCCC3C1 (stereo not drawn) [drawing 171]
Emax at 10 µM (5-HT2C; Table 4): < 0%
EC50 (5-HT2C; Table 4): > 10000 nM
Emax at 10 µM (5-HT2B; Table 4): 5%
EC50 (5-HT2B; Table 4): 0.4 µM
IC50 (hERG; Table 4): ~60 µM
inhibition at 30 µM (hERG; human, HEK-293 cells expressing hERG, probe [3H]Dofetilide, Table 4, efficacy at 30 μM, read-out: % inhibition of control specific binding (hERG)): 38%
Emax at 10 µM (5-HT2A; Table 4): 1%
EC50 (5-HT2A; Table 4): > 10000 nM

CN1CCCc2oc3ccccc3c2C1 [drawing 164]
Emax at 10 µM (5-HT2C; Table 2): 44%
EC50 (5-HT2C; Table 2): ~14000 nM
Emax at 10 µM (5-HT2B; Table 2): 3%
EC50 (5-HT2B; Table 2): > 10 µM
Emax at 10 µM (KOR; CHO, Table 2): 47%
EC50 (KOR; [1]): ~3 µM
Emax at 10 µM (5-HT2A; Table 2): 4%
EC50 (5-HT2A; Table 2): > 10000 nM

CN1CCCc2oc3ccccc3c2C1 [drawing 168]
IC50 (rVMAT2): 15 ± 4.6 µM
IC50 (hSERT): 7.1 ± 2.3 µM

Oc1ccc2oc3c(c2c1)CCNCC3 [drawing 172]
Emax at 10 µM (KOR; CHO, Table 5, CAMP Assay): < 0%
EC50 (KOR; Table 5, CAMP Assay): > 10 µM

c1ccc2c3c(oc2c1)CCNCC3 [drawing 161]
Emax at 10 µM (5-HT2C; Table 2): 90%
EC50 (5-HT2C; Table 2): < 100 nM
Emax at 10 µM (5-HT2B; Table 2): 20%
EC50 (5-HT2B; Table 2): > 10 µM
Emax at 10 µM (KOR; CHO, Table 2): 36%
EC50 (KOR; [1]): ~1.2 µM
Emax at 10 µM (5-HT2A; Table 2): 77%
EC50 (5-HT2A; Table 2): ~1000 nM

Oc1ccc2oc3c(c2c1)CCN1CCCC3C1 (stereo not drawn) [drawing 175]
EC50 (mouse MOR (mMOR)): 110 nM
Emax (mouse MOR (mMOR)): 44%
EC50 (mouse DOR (mDOR)): 120 nM
Emax (mouse DOR (mDOR)): 55%
EC50 (rat KOR (rKOR)): 140 nM
Emax (rat KOR (rKOR)): 30%
Emax (KOR; CHO, Table 5, CAMP Assay): 91%
EC50 (KOR; Table 5, CAMP Assay): 0.05 µM

CN1CCc2oc3ccccc3c2CC1 [drawing 162]
Emax at 10 µM (5-HT2C; Table 2): 99%
EC50 (5-HT2C; Table 2): ~200 nM
Emax at 10 µM (5-HT2B; Table 2): 4%
EC50 (5-HT2B; Table 2): > 10 µM
IC50 (hERG; Table 2, HEK-293): > 10 µM
inhibition at 10 µM (hERG; human, HEK-293 cells expressing hERG, probe [3H]Dofetilide, Table 2, at 10 μM, read-out: % inhibition of control specific binding (hERG)): 11%
Emax at 10 µM (KOR; CHO, Table 2): 36%
EC50 (KOR; [1]): ~4.2 µM
Emax at 10 µM (5-HT2A; Table 2): 26%
EC50 (5-HT2A; Table 2): > 10000 nM

CC1Cc2oc3ccc(O)cc3c2CCN1C (stereo not drawn)
EC50 (mouse MOR (mMOR)): 320 nM
Emax (mouse MOR (mMOR)): 46%
EC50 (mouse DOR (mDOR)): 1200 nM
Emax (mouse DOR (mDOR)): 66%
EC50 (rat KOR (rKOR)): 79 nM
Emax (rat KOR (rKOR)): 53%

Oc1ccc2oc3c(c2c1)CCNCC3 [drawing 169]
Emax at 10 µM (5-HT2C; Table 4): 93%
EC50 (5-HT2C; Table 4): 100 nM
Emax at 10 µM (5-HT2B; Table 4): 19%
EC50 (5-HT2B; Table 4): > 10 µM
Emax at 10 µM (5-HT2A; Table 4): 72%
EC50 (5-HT2A; Table 4): 600 nM

CN1CCc2oc3ccccc3c2CC1 [drawing 166]
IC50 (rVMAT2): 4.9 ± 0.94 µM
IC50 (hSERT): 1.4 ± 0.3 µM

CC1Cc2oc3ccc(O)cc3c2CCN1 (stereo not drawn) [drawing 170]
Emax at 10 µM (5-HT2C; Table 4): 86%
EC50 (5-HT2C; Table 4): 400 nM
Emax at 10 µM (5-HT2A; Table 4): 45%
EC50 (5-HT2A; Table 4): 1900 nM

c1ccc2c3c(oc2c1)CCNCC3 [drawing 165]
IC50 (rVMAT2): 1.4 ± 0.23 µM
IC50 (hSERT): 0.45 ± 0.06 µM

CC1Cc2oc3ccc(O)cc3c2CCN1 (stereo not drawn) [drawing 173]
EC50 (mouse MOR (mMOR)): 200 nM
Emax (mouse MOR (mMOR)): 16%
EC50 (mouse DOR (mDOR)): 620 nM
Emax (mouse DOR (mDOR)): 45%
EC50 (rat KOR (rKOR)): 130 nM
Emax (rat KOR (rKOR)): 36%
Emax (KOR; CHO, Table 5, CAMP Assay): 96%
EC50 (KOR; Table 5, CAMP Assay): 0.06 µM

c1ccc2c3c(oc2c1)CCCNC3 [drawing 167]
IC50 (rVMAT2): 0.061 ± 0.01 µM
IC50 (hSERT): 11 ± 2.9 µM

c1ccc2c3c(oc2c1)CCCNC3 [drawing 163]
Emax at 10 µM (5-HT2C; Table 2): 78%
EC50 (5-HT2C; Table 2): ~1300 nM
Emax at 10 µM (5-HT2B; Table 2): 22%
EC50 (5-HT2B; Table 2): > 10 µM
Emax at 10 µM (KOR; CHO, Table 2): 45%
EC50 (KOR; [1]): ~4.4 µM
Emax at 10 µM (5-HT2A; Table 2): 26%
EC50 (5-HT2A; Table 2): ~60000 nM
